Test results reported in US20070026080A1, “Manufacturing process for tigecycline” (Wyeth, priority 2005, published 2007).
Values joined by “and” are separate entries in the source; they are usually repeats but may differ in a detail not shown here. Equal entries are not always repeated. Marks after values point to notes of the source that are not given here.

Test: Strength and degradation profile of tigecycline 20 mg/mL bulk solutions by reversed phase HPLC (effect of temperature, time, pH, dissolved oxygen; Runs A to O)
Format: physicochemical
Conditions: 20 mg/mL
Procedure: The contents of the sample vials are dissolved in diluent. The sample solution is diluted, if necessary, and chromatographed on a reversed phase column using gradient elution. Impurities are determined by comparing the impurity peak areas in the sample preparation chromatogram to the average area of tigecycline peaks in the standard preparation chromatograms obtained concomitantly.
Chromatographic Column—Length about 15 cm, inside diameter about 4.6 mm, packed with Inertsil ODS2, 5 μm size particles or equivalent.
Detector—Ultraviolet spectrophotometric detector capable of operating at 248 nm with a sensitivity of about 0.5 absorbance units full scale.
The results of additional studies to investigate the effect of processing parameters such as temperature, time, and dissolved oxygen content on the purity profile of tigecycline solutions using the following materials, methods and procedures are presented in Tables A to O.
The experiments were run in plastic glove bags under normal laboratory light conditions. Plastic glove boxes will be used to control the headspace of the beakers. The batch size was 200 mL. • 1. Prepare the glove bag with a mixture of nitrogen and air to achieve an oxygen level in the solution as per the design. • 2. Place the jacketed beaker on the magnetic stirrer. Connect it to the cooler. Set the cooler to the desired set point. • 3. Add 200 mL of SWFI in to the beaker. Allow equilibrating. Measure the temperature and oxygen content. When it reaches the desired condition, add accurately weighed API and mix until dissolved. If necessary use spatula to aid dissolution. For pH adjustments, use 4 mL of either 0.1N NaOH or 0.1N HCl and 196 mL of WFI for manufacture. • 4. After complete dissolution, Transfer about 5.5 mL of Solution in vials and stopper them. These vials will be stoppered at the appropriate headspace conditions. Place the vials in appropriate temperature conditions. • 5. Sample the vials at 1, 4, 8, 10, 12 and 24 hours. Send the samples for analysis. Freeze the 10, 12 and 24 samples at −20° C. for analysis the following day. • 6. Measure pH and record color of the solution at each time point. Results
The 1-hour samples were taken directly from the beakers. Samples for later time points were collected in stoppered vials processed in the atmosphere of the bag in order to simulate the headspace conditions then placed in water baths or refrigerator to maintain there respective temperature conditions. This was done to maintain safety in the lab. Disposable plastic glove bags require constant flow of a mixture of nitrogen and air to maintain headspace oxygen level that will result in the desired dissolved oxygen (DO) content in the sample. The pH of samples was measured at each sample points.
Strength and degradation profile was analyzed by HPLC as described above. […] Degradation was slightly higher at higher temperature condition.

[1] = Run #D, 8° C., pH 7.7, Oxygen 2.0 mg/L, hours 1,4,8,10,12,24 at r6-r11, after 4 hours
[2] = Run #D, 8° C., pH 7.7, Oxygen 2.0 mg/L, hours 1,4,8,10,12,24 at r6-r11, after 8 hours
[3] = Run #D, 8° C., pH 7.7, Oxygen 2.0 mg/L, hours 1,4,8,10,12,24 at r6-r11, after 10 hours
[4] = Run #D, 8° C., pH 7.7, Oxygen 2.0 mg/L, hours 1,4,8,10,12,24 at r6-r11, after 12 hours
[5] = Run #D, 8° C., pH 7.7, Oxygen 2.0 mg/L, hours 1,4,8,10,12,24 at r6-r11, after 24 hours
[6] = Run #D, 8° C., pH 7.7, Oxygen 2.0 mg/L, hours 1,4,8,10,12,24 at r17-r22, after 1 hours
[7] = Run #D, 8° C., pH 7.7, Oxygen 2.0 mg/L, hours 1,4,8,10,12,24 at r17-r22, after 4 hours
[8] = Run #D, 8° C., pH 7.7, Oxygen 2.0 mg/L, hours 1,4,8,10,12,24 at r17-r22, after 8 hours
[9] = Run #D, 8° C., pH 7.7, Oxygen 2.0 mg/L, hours 1,4,8,10,12,24 at r17-r22, after 10 hours
[10] = Run #D, 8° C., pH 7.7, Oxygen 2.0 mg/L, hours 1,4,8,10,12,24 at r17-r22, after 12 hours
[11] = Run #D, 8° C., pH 7.7, Oxygen 2.0 mg/L, hours 1,4,8,10,12,24 at r17-r22, after 24 hours
[12] = Run #E, 5° C., Oxygen = 2.0 mg/mL, hours 1,4,8,12,24 at r6-r10
[13] = Run #E, 5° C., Oxygen = 2.0 mg/mL, hours 1,4,8,12,24 at r16-r20, 1 hours
[14] = Run #E, 5° C., Oxygen = 2.0 mg/mL, hours 1,4,8,12,24 at r16-r20, 4 hours
[15] = Run #E, 5° C., Oxygen = 2.0 mg/mL, hours 1,4,8,12,24 at r16-r20, 8 hours
[16] = Run #E, 5° C., Oxygen = 2.0 mg/mL, hours 1,4,8,12,24 at r16-r20, 12 hours
[17] = Run #E, 5° C., Oxygen = 2.0 mg/mL, hours 1,4,8,12,24 at r16-r20, 24 hours
[18] = Run #F, 2° C., hours 1,4,8,12,24 at r5-r9, 1 h after preparation
[19] = Run #F, 2° C., hours 1,4,8,12,24 at r5-r9, 4 h after preparation

## CN(C)c1cc(NC(=O)CNC(C)(C)C)c(O)c2c1C[C@H]1C[C@H]3[C@H](N(C)C)C(O)=C(C(N)=O)C(=O)[C@@]3(O)C(O)=C1C2=O [Tigecycline]
Run #D, 8° C., pH 7.7, Oxygen 2.0 mg/L, hours 1,4,8,10,12,24 at r6-r11, after 1 hours
  Strength: 19.168 mg/mL
[1]
  RRT 0.55 MW = 583: 0.16%
  RRT 0.74 Epimer: 0.18%
  Strength: 18.918 mg/mL
[2]
  RRT 0.55 MW = 583: 0.23%
  Strength: 18.915 mg/mL
[3]
  RRT 0.55 MW = 583: 0.27%
  RRT 0.74 Epimer: 0.25%
  Strength: 19.292 mg/mL
[4]
  RRT 0.55 MW = 583: 0.29%
  RRT 0.74 Epimer: 0.24%
  Strength: 18.728 mg/mL
[5]
  RRT 0.55 MW = 583: 0.36%
  RRT 0.74 Epimer: 0.27%
  Strength: 18.050 mg/mL
[6]
  RRT 1.45: 0.07%
  RRT 1.67 MW = 556: 0.10%
  RRT 1.85 MW = 597: 0.08%
  Total: 0.65%
[7]
  RRT 1.45: 0.19%
  RRT 1.67 MW = 556: 0.21%
  Total: 1.09%
[8]
  RRT 1.45: 0.06%
  RRT 1.67 MW = 556: 0.37%
  RRT 1.85 MW = 597: 0.14%
  Total: 1.57%
[9]
  RRT 1.67 MW = 556: 0.24%
  Total: 2.27%
[10]
  RRT 1.45: 0.10%
  RRT 1.67 MW = 556: 0.28%
  RRT 1.85 MW = 597: 0.09%
  Total: 2.47%
[11]
  RRT 1.67 MW = 556: 0.51%
  RRT 1.85 MW = 597: 0.10%
  Total: 4.32%
[12]
  RRT 0.55 MW = 583: 0.43% and 0.07% and 0.17% and 0.22% and 0.33%
  Strength: 17.950 mg/mL and 19.261 mg/mL and 19.215 mg/mL and 18.970 mg/mL and 18.475 mg/mL
[13]
  RRT 0.58: 0.08%
  RRT 0.74 Epimer: 0.16%
  RRT 0.76: 0.05%
  RRT 1.45: 0.08%
  RRT 1.85 MW = 597: 0.08%
  Total: 0.67%
[14]
  RRT 0.58: 0.07%
  RRT 0.74 Epimer: 0.17%
  RRT 1.85 MW = 597: 0.07%
  Total: 0.96%
[15]
  RRT 0.74 Epimer: 0.19%
  RRT 0.76: 0.11%
  RRT 1.45: 0.10%
  RRT 1.85 MW = 597: 0.09%
  Total: 1.58%
[16]
  RRT 0.74 Epimer: 0.24%
  RRT 0.76: 0.12%
  RRT 1.85 MW = 597: 0.11%
  Total: 3.15%
[17]
  RRT 0.58: 0.05%
  RRT 0.74 Epimer: 0.28%
  RRT 0.76: 0.13%
  RRT 1.45: 0.07%
  RRT 1.85 MW = 597: 0.12%
  Total: 4.23%
Run #E, 5° C., Oxygen = 2.0 mg/mL, hours 1,4,8,12,24 at r16-r20, at 24 h Mino is co-eluting, 1 hours
  RRT 1.67 MW = 556: 0.08%
Run #E, 5° C., Oxygen = 2.0 mg/mL, hours 1,4,8,12,24 at r16-r20, at 24 h Mino is co-eluting, 4 hours
  RRT 1.67 MW = 556: 0.16%
Run #E, 5° C., Oxygen = 2.0 mg/mL, hours 1,4,8,12,24 at r16-r20, at 24 h Mino is co-eluting, 8 hours
  RRT 1.67 MW = 556: 0.26%
Run #E, 5° C., Oxygen = 2.0 mg/mL, hours 1,4,8,12,24 at r16-r20, at 24 h Mino is co-eluting, 12 hours
  RRT 1.67 MW = 556: 0.39%
Run #E, 5° C., Oxygen = 2.0 mg/mL, hours 1,4,8,12,24 at r16-r20, at 24 h Mino is co-eluting, 24 hours
  RRT 1.67 MW = 556: 0.44^a %
Run #F, 2° C., Oxygen = 1.0 mg/mL, hours 1,4,8,12,24 at r5-r9, 1 h after preparation
  Strength: 18.733 mg/mL
Run #F, 2° C., Oxygen = 1.0 mg/mL, hours 1,4,8,12,24 at r5-r9, 4 h after preparation
  Strength: 18.700 mg/mL
Run #F, 2° C., Oxygen = 1.0 mg/mL, hours 1,4,8,12,24 at r5-r9, 8 h after preparation
  Strength: 18.729 mg/mL
Run #F, 2° C., Oxygen = 1.0 mg/mL, hours 1,4,8,12,24 at r5-r9, 12 h after preparation
  Strength: 18.543 mg/mL
Run #F, 2° C., Oxygen = 1.0 mg/mL, hours 1,4,8,12,24 at r5-r9, 24 h after preparation
  Strength: 18.818 mg/mL
[18]
  RRT 0.58: 0.08%
  RRT 0.74 Epimer: 0.15%
  RRT 1.45: 0.07%
  RRT 1.64 Mino: 0.10%
  RRT 1.85 MW = 597: 0.07%
  Total: 0.47%
[19]
  RRT 0.58: 0.07%
  RRT 0.74 Epimer: 0.16%
  RRT 1.64 Mino: 0.09%
  RRT 1.85 MW = 597: 0.09%
  Total: 0.71%
Run #F, 2° C., hours 1,4,8,12,24 at r5-r9, 8 h after preparation
  RRT 0.74 Epimer: 0.17%
